Read-outs that look alike come from different tables or passages of the source.
Target: T1, Full-length glucokinase (beta cell isoform) (Homo sapiens, UniProt P35557)
T1 construct: Full-length glucokinase (beta cell isoform) was His-tagged at N-terminus; His tag (N); made in house
T1 sequence (P35557 1-465): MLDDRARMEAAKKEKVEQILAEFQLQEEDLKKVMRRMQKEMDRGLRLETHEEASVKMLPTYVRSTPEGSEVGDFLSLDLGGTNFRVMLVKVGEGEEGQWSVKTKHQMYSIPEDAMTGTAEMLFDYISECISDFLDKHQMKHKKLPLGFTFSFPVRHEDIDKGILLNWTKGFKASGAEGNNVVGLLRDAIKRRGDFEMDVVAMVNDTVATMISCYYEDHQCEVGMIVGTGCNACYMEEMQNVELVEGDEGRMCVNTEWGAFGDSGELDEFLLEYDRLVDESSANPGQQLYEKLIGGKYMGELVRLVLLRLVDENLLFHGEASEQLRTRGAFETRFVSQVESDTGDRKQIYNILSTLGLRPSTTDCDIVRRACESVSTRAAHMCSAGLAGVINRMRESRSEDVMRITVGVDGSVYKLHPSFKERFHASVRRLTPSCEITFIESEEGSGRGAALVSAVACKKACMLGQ
Test: Glucokinase biochemical assay (PK/LDH-coupled, NADH depletion at 340 nm): % activation, EC50, % max activation
Details: 5 mM glucose; for activation at 10 µM: read-out: % Activation at 10 uM; for EC50: read-out: EC50; for Emax / % Max Activation: fitted maximum activation; for Emax: read-out: % Max Activation
Summary of the method: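 N-terminally His-tagged full-length human beta-cell glucokinase, room temperature, 5 mM glucose, 1 mM ATP, PK/LDH-coupled with 0.7 mM NADH, 1% DMSO final. Initial velocity from the 200–900 s slope of A340 decline. % activation = (Va/Vo−1)×100, measured across compound concentrations.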

[1] = 10 uM compound, % Activation=(Va/Vo−1)×100
[2] = compound at 10 uM, 1 mM ATP, room temperature

SMILES	activation at 10 µM [1] [%]	EC50 (GK activation) [nM]	Emax [%]	EC50 (1 mM ATP, room temperature) [nM]	activation at 10 µM [2] [%]	also measured
COCCNC(=O)c1ccc(Oc2cc(C(=O)Nc3ccn(C)n3)cc3c2CC(C)(C)O3)cc1F [Example 68, 4-[3-Fluoro-4-(2-methoxy-ethylcarbamoyl)-phenoxy]-2,2-dimethyl-2,3-dihydro-benzofuran-6-carboxylic acid(1-methyl-1H-pyrazol-3-yl)-amide]	146	660	175	–	–	–
Cn1ccc(NC(=O)c2cc(OCc3nc(-c4ccccn4)no3)c3c(c2)OC(C)(C)C3)n1 [Example 98, 2,2-Dimethyl-4-(3-pyridin-2-yl-[1,2,4]oxadiazol-5-ylmethoxy)-2,3-dihydro-benzofuran-6-carboxylic acid (1-methyl-1H-pyrazol-3-yl)-amide]	154	1600	165	–	–	–
Cc1ccc(NC(=O)c2cc(Oc3ccc(S(C)(=O)=O)cc3)c3c(c2)C(=O)N(CC(C)C)C3)nc1 [Example 381, 2-Isobutyl-N-(5-methylpyridin-2-yl)-7-(4-(methylsulfonyl)-phenoxy)-3-oxoisoindoline-5-carboxamide]	–	–	–	3000	81	Emax (1 mM ATP): 132%
Cc1ccc(NC(=O)c2cc(Oc3ccc(S(C)(=O)=O)cc3)c3ccsc3c2)nc1 [Example 355, 4-(4-Methanesulfonyl-phenoxy)-benzo[b]thiophene-6-carboxylic acid(5-methyl-pyridin-2-yl)-amide]	114	520	110	–	–	–
CCN1Cc2c(Oc3ccc(S(C)(=O)=O)cc3)cc(C(=O)Nc3ccc(C)cn3)cc2C1=O [Example 379, 2-Ethyl-N-(5-methylpyridin-2-yl)-7-(4-(methylsulfonyl)-phenoxy)-3-oxoisoindoline-5-carboxamide]	–	–	–	4500	74.1	Emax (1 mM ATP): 98%
CCNC(=O)c1ncc(Oc2cc(C(=O)Nc3ccn(C)n3)cc3c2CC(C)(C)O3)cc1F [Example 177, 5-[2,2-Dimethyl-6-(1-methyl-1H-pyrazol-3-ylcarbamoyl)-2,3-dihydro-benzofuran-4-yloxy]-3-fluoro-pyridine-2-carboxylic acid ethylamide]	204	350	189	–	–	–
CCS(=O)(=O)c1ccc(Oc2cc(C(=O)Nc3ccn(C)n3)cc3c2CC(C)(C)O3)cc1 [Example 127, 4-(4-Ethanesulfonyl-phenoxy)-2,2-dimethyl-2,3-dihydro-benzofuran-6-carboxylic acid (1-methyl-1H-pyrazol-3-yl)-amide]	193	66	165	–	–	–
Cn1ncc(NC(=O)c2cc(Oc3ccc(S(C)(=O)=O)cc3)cc3c2CC(C)(C)O3)n1 [Example 198, 6-(4-Methanesulfonyl-phenoxy)-2,2-dimethyl-2,3-dihydro-benzofuran-4-carboxylic acid (2-methyl-2H-[1,2,3]triazol-4-yl)-amide]	51.4	> 10000	–	–	–	–
Cc1ccc(NC(=O)c2cc(Oc3ccc(S(C)(=O)=O)cn3)c3cc(C)oc3c2)nc1 [Example 281, 2-Methyl-N-(5-methylpyridin-2-yl)-4-(5-(methylsulfonyl)pyridin-2-yloxy)-benzofuran-6-carboxamide]	92.7	2100	87	–	–	–
COc1cc(C(=O)Nc2ccc(C)cn2)c2nc(C)[nH]c2c1 [Example 373, 6-Methoxy-2-methyl-1H-benzoimidazole-4-carboxylic acid(5-methyl-pyridin-2-yl)-amide]	-1.1	–	–	–	–	–
CCN1Cc2c(Oc3ccc(S(C)(=O)=O)cc3)cc(C(=O)Nc3ccn(C)n3)cc2C1=O [Example 380, 2-Ethyl-N-(1-methyl-1H-pyrazol-3-yl)-7-(4-(methylsulfonyl)-phenoxy)-3-oxoisoindoline-5-carboxamide]	–	–	–	> 10000	67.9	–
CN(C)C(=O)c1ccc(Oc2cc(C(=O)Nc3ccncn3)cc3c2CC(C)(C)O3)cc1 [Example 156, 4-(4-Dimethylcarbamoyl-phenoxy)-2,2-dimethyl-2,3-dihydro-benzofuran-6-carboxylic acid pyrimidin-4-ylamide]	52	460	49	–	–	–
Cc1ccc(NC(=O)c2cc(Oc3ccc(S(=O)(=O)C4CC4)c(F)c3)c3c(c2)OC(C)(CO)C3)nc1 (single isomer, unassigned; (+)) [Example 401, (+)-4-(4-Cyclopropanesulfonyl-3-fluoro-phenoxy)-2-hydroxymethyl-2-methyl-2,3-dihydro-benzofuran-6-carboxylic acid(5-methyl-pyridin-2-yl)-amide]	–	–	–	290	131	Emax (1 mM ATP): 139%
CC1Cc2c(Oc3ccc(S(C)(=O)=O)cc3)cc(C(=O)Nc3ccn(C)n3)cc2O1 (single isomer, unassigned; (-)) [Example 12, (−)-4-(4-Methanesulfonyl-phenoxy)-2-methyl-2,3-dihydro-benzofuran-6-carboxylic acid(1-methyl-1H-pyrazol-3-yl)-amide]	–	3000	–	–	–	% Activation at 10 uM [1]: 162%; % Max Activation: 195%
CN(CC#N)C(=O)c1ccc(Oc2cc(C(=O)Nc3ccn(C)n3)cc3c2CC(C)(C)O3)cn1 [Example 399, 5-[2,2-Dimethyl-6-(1-methyl-1H-pyrazol-3-ylcarbamoyl)-2,3-dihydro-benzofuran-4-yloxy]-pyridine-2-carboxylic acid cyanomethyl-methyl-amide]	–	–	–	610	212	Emax (1 mM ATP): 231%
Cc1cc2c(Oc3ccc(S(C)(=O)=O)cc3)cc(C(=O)Nc3ccn(C)n3)cc2s1 [Example 360, 4-(4-(Methylsulfonyl)phenoxy)-2-methyl-N-(1-methyl-1H-pyrazol-3-yl)benzo[b]thiophene-6-carboxamide]	129	620	142	–	–	–
Cc1cc2c(Oc3ccc(S(C)(=O)=O)cc3)cc(C(=O)Nc3cccc(C(C)O)n3)cc2o1 (stereo not drawn) [Example 269, N-(6-(1-Hydroxyethyl)pyridin-2-yl)-2-methyl-4-(4-(methylsulfonyl)phenoxy)-benzofuran-6-carboxamide]	34.8	7000	59	–	–	–
COCC1(C)Cc2c(Oc3ccc(C(=O)N4CCC4)c(F)c3)cc(C(=O)Nc3ccn(C)n3)cc2O1 (single isomer, unassigned; (+)) [Example 244, (+)-4-[4-(Azetidine-1-carbonyl)-3-fluoro-phenoxy]-2-methoxymethyl-2-methyl-2,3-dihydro-benzofuran-6-carboxylic acid (1-methyl-1H-pyrazol-3-yl)-amide]	–	210	–	–	–	% Activation at 10 uM [1]: 287%; % Max Activation: 234%
CC(C)Oc1cc(C(=O)Nc2ccn(C)n2)cc2c1CC(COc1ccccc1)O2 (stereo not drawn) [Example 214, 4-Isopropoxy-2-phenoxymethyl-2,3-dihydro-benzofuran-6-carboxylic acid (1-methyl-1H-pyrazol-3-yl)-amide]	12	–	–	–	–	–
CC(C)CN1Cc2c(Oc3ccc(S(C)(=O)=O)cc3)cc(C(=O)Nc3ccn(C)n3)cc2C1=O [Example 382, 2-Isobutyl-N-(1-methyl-1H-pyrazol-3-yl)-7-(4-(methylsulfonyl)-phenoxy)-3-oxoisoindoline-5-carboxamide]	–	–	–	9300	82	Emax (1 mM ATP): 156%
